Source: patent US20250171420A1 (Monte Rosa Therapeutics, Inc., priority 2022, published 2025)

How the values were obtained:
CW2 cell line = experiment: Growth inhibition, CyQUANT Direct Cell Proliferation Assay, CW2; format: cell-based; conditions: Homo sapiens, CW-2; CW2, 120 to 168 hours; read-out: CW2 GI50
Outline: (§1)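 Cells seeded 300 to 1,800 per well, day-0 CyQUANT Direct read after overnight attachment; 9-point 3-fold dilutions from 30 μM top concentration, 120 to 168 h exposure, 0.3% DMSO control. Fluorescence Ex/Em 480/520 nm; growth inhibition normalised to day-0 and untreated day-N signals, GI50 at 50% of untreated control.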

[1] = Oral pharmacokinetics in male BALB/c mice; format: in vivo; conditions: mouse, PO 10 mg/kg, plasma, mean ± SD
Experimental: Male BALB/c mice were administered a discrete, oral (PO) dose of Compound 288, Compound 335, Compound 102, or Compound 303 at 10 mg/kg; all mice were fasted except for mice that were dosed with Compound 288. Male BALB/c mice were fasted overnight and administered a cassette dose, PO dose of Compound 303 and other compounds at 5 mg/kg per compound.
Blood samples were collected serially from three animals/time-point following PO administration of the test compounds to the mice and placed in tubes containing K2EDTA. The blood samples were centrifuged, and the aliquots of the resulting plasma stored frozen at −60 to −90° C.
The plasma samples were analyzed by LC-MS/MS to determine concentrations of the test compounds. The in-life portion of the study and the bioanalysis of plasma samples was conducted at Wuxi (China).
The pharmacokinetic parameters for the tested compounds were calculated by non-compartmental analysis using Phoenix WinNonlin software.

CK1α [2] = biological target: T1, CK1α (Homo sapiens, UniProt P48729+Q96SW2); experiment: Western blot of CK1α levels in HEK293 and HEK293 CRBN knock out cells; format: cell-based; conditions: 0.1, 1, 10 μM, 24 hours, FIG. 1
T1 construct: HEK293 clonal lines with CRISPR KI HiBiT tag on CSNK1A1
T1 sequence (P48729 whole entry): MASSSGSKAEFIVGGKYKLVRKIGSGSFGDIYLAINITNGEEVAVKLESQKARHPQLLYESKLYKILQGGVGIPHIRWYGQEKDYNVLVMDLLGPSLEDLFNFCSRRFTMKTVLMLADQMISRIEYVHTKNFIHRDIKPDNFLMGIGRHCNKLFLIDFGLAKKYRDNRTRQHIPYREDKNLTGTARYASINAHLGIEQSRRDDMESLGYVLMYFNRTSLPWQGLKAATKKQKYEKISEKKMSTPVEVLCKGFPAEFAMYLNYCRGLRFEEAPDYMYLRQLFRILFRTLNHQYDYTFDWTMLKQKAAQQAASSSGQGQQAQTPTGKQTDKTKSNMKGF
T1 sequence (Q96SW2 whole entry): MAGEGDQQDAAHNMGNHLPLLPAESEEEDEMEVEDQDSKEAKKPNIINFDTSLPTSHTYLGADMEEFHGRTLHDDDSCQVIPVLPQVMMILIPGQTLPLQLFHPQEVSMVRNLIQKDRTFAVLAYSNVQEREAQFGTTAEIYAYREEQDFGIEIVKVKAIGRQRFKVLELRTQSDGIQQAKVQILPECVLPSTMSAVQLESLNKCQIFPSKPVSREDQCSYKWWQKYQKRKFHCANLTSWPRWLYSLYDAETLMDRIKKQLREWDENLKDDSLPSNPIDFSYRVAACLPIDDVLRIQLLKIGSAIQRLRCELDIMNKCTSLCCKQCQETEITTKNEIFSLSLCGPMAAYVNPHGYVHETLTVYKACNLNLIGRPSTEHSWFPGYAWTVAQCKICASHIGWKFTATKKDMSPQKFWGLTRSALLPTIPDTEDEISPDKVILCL
T1 sequence (Q16531 2-1140 partner limits assumed): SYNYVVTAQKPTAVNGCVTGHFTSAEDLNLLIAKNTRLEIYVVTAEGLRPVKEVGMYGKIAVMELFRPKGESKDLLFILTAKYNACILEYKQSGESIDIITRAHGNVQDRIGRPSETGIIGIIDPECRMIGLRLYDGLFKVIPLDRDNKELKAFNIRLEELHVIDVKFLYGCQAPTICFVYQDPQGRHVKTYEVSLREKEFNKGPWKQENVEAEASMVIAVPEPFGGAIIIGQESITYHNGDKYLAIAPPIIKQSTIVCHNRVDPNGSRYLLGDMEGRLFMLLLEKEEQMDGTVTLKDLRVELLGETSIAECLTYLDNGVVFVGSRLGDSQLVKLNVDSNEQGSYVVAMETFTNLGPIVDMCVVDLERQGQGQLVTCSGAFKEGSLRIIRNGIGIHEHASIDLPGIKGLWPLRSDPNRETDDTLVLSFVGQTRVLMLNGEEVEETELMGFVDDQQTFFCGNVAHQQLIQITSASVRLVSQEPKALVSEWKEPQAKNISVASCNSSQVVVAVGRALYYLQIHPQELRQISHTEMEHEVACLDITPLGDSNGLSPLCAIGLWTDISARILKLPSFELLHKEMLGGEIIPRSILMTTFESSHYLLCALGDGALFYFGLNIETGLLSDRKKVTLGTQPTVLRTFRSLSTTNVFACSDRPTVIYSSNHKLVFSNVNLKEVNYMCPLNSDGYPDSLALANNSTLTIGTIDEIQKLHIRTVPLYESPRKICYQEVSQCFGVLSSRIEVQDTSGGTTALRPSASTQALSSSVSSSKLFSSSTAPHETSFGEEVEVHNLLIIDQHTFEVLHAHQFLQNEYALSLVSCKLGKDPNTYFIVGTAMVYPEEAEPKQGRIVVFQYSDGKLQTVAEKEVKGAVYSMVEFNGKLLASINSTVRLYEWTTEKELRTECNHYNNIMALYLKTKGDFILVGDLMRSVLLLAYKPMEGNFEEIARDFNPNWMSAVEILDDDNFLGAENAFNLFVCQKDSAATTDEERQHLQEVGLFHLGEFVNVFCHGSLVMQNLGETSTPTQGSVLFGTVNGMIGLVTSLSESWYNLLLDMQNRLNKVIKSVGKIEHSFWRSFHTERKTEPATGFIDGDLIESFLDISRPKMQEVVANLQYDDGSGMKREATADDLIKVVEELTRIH
Experimental: HEK293 cell line was purchased from ATCC (CRL-1573). HEK293 CRBN knock out (k/o) cell line (B2) was generated internally using CRISPR/Cas9 method and clonally expanded. Cells were plated at 2×10^5 cells per well in 6-well tissue culture plates (VWR) in 2 ml of DMEM media (Gibco) containing 10% FBS (Gibco), and incubated for 16 hours at 37° C., 5% CO2. Compounds were added to final concentration of 0.1 μM, 1 μM, 10 μM (DMSO concentration was kept constant at 0.1%), following incubation at 37° C., 5% CO2 for additional 24 hours. Cell lysis was performed using RIPA buffer (Pierce) containing Halt™ Protease Inhibitor Cocktail (ThermoFisher Scientific). Lysates were boiled at 95° C. for 10 minutes and 12 μg of protein lysate per sample was resolved by SDS-PAGE using 12% gels (BioRad) and transferred to nitrocellulose membrane (BioRad). Membranes were blocked using LI-COR blocking buffer (LI-COR) at room temperature for 1 hour, followed by overnight incubation with rabbit anti-CK1α (Abcam ab206652), rabbit anti-CRBN (Sigma HPA045910) and mouse anti-α-tubulin (Sigma T9026) antibodies at 4° C. Secondary antibodies (LI-COR) were added for 1 hour at room temperature, followed by imaging with LI-COR imaging system Odyssey® CLx.

GP2D cell line = experiment: Growth inhibition, CyQUANT Direct Cell Proliferation Assay, GP2D; format: cell-based; conditions: GP2D, 120 to 168 hours; read-out: GP2D GI50
Outline: as §1

LS174T cell line = experiment: Growth inhibition, CyQUANT Direct Cell Proliferation Assay, LS174T; format: cell-based; conditions: Homo sapiens, 120 to 168 hours, read-out: LS174T GI50
Outline: as §1

SKCO1 cell line = experiment: Growth inhibition, CyQUANT Direct Cell Proliferation Assay, SKCO1; format: cell-based; conditions: Homo sapiens, SK-CO-1; SKCO1, 120 to 168 hours; read-out: SKCO1 GI50
Outline: as §1

CK1α [3] = biological target: T2, CK1α (Homo sapiens, UniProt P48729); experiment: CK1α NanoBit Assay (HiBiT-tagged CSNK1A1, HEK293 clonal lines); format: cell-based; conditions: HEK293 HiBiT-CSNK1A1/LgBiT cells, 24 h incubation
T2 construct: HEK293 clonal lines with CRISPR KI HiBiT tag on CSNK1A1
T2 sequence (P48729 whole entry): as the sequence (P48729 whole entry) above
T2 sequence (Q96SW2 whole entry, further chain): as the sequence (Q96SW2 whole entry) above
T2 sequence (Q16531 2-1140 partner limits assumed): as the sequence (Q16531 2-1140 partner limits assumed) above
Outline: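 HEK293 clones carrying a CRISPR knock-in HiBiT tag on CSNK1A1 and stably expressing LgBiT are treated with compound for 24 hours at 37° C, 5% CO2, then read by luminescence. Response is normalized as 100*(S−N)/(P−N) against plate negative and positive controls, and DC50 values are derived.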

## C[C@@H]1Cc2ccccc2N1C(=O)Nc1ccc2c(c1)CN(C1CCC(=O)NC1=O)C2=O (stereo partly drawn) [Compound 102, (2R)—N-(2-(2,6-dioxopiperidin-3-yl)-1-oxoisoindolin-5-yl)-2-methylindoline-1-carboxamide]
CW2 cell line
  GI50: < 100 nM
[1]
  AUC: 1040 ± 245 ng·h/mL
  AUC(0-t): 889 ± 218 ng·h/mL
  Cmax: 361 ± 142 ng/mL
  Tmax: 1.33 ± 0.58 h
CK1α [2]; HEK293, cereblon present
  effect on CK1a levels in HEK293 cell line: decreases CK1a levels
CK1α [2]; HEK293 CRBN knock-out
  effect on CK1a levels in cereblon (CRBN) knock-out HEK293 cell line: no effect on CK1a levels
GP2D cell line
  GI50: 100 to 1000 nM
LS174T cell line
  GI50: 100 to 1000 nM
SKCO1 cell line
  GI50: < 100 nM
CK1α [3]
  DC50: < 0.1 µM
